# Experimental data reported in article PMC9363231, “High‐resolution analysis of individual spike peptide‐specific CD4 ^+ T‐cell responses in vaccine recipients and COVID‐19 patients” (Clinical & Translational Immunology, 2022).
# Like-named read-outs stand apart in the source and are kept apart here.
# What was measured:
# Experiment in all cases: biochemical
# Format in all cases: binding
# [1] = target: HLA-DRB1*08:02 (Homo sapiens, UniProt P01903+P01911, A100R/A103L/A169T/F76Y/H45Y/I96F/K41T/L162R/M171V/P40S/Q125H/Q178H/Q39Y/Q99D/R218S/R42G/S66Y/V115G/W38E)
# [2] = target: HLA-DRB1*12:01 (Homo sapiens, UniProt P01903+P01911, A100R/A169T/D57E/D86V/F55L/H45Y/K41T/L162R/M171V/P40S/Q125H/Q178H/Q39Y/Q99D/R42G/S66L/T262R/V114A/V67L/W38E/Y59H/Y61H/Y89S)
# [3] = target: HLA-DRB1*01:01 (Homo sapiens, UniProt P01903+P01911, A100R/D57E/F55L/F60I/F76Y/I96L/L162R/M171V/P40L/Q125E/R42F/V115G/Y59C)
# [4] = target: HLA-DRB1*04:01 (Homo sapiens, UniProt P01903+P01911, A100K/A169T/F76Y/I96L/K127E/L162R/M171V/N62H/P40V/Q125Y/R42H/S133A/S149N/S66Y/V115G/V209L/W38E)
# [5] = target: HLA-DRB1*07:01 (Homo sapiens, UniProt P01903+P01911, A100R/A102G/A103Q/D57E/D86V/E43K/F76Y/K127E/L162R/M171V/P40G/Q125H/Q99D/R33Q/R42Y/R54Q/S133A/S66F/T210M/V115G/Y107V/Y59L/Y89S)
# [6] = target: HLA-DRB1*13:02 (Homo sapiens, UniProt P01903+P01911, A100E/A169T/K41T/L162R/M171V/P40S/Q125H/Q178H/Q39Y/Q99D/R42S/S66N/T262R/V115G/W38E/Y61H)
# Sequence of HLA-DRB1*13:02 (P01903 26-254 limits assumed, other chains not shown): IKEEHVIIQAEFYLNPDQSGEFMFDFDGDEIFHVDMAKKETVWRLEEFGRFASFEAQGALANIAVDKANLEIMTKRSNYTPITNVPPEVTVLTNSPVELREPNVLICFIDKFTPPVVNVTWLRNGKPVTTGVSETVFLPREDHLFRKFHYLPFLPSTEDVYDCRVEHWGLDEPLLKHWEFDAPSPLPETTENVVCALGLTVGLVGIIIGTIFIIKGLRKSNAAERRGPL
# [7] = target: HLA-DRB1*03:01 (Homo sapiens, UniProt P01903+P01911, A100K/A102G/A103R/A169T/F55Y/I96L/K41T/L162R/M171V/P40S/Q125H/Q178H/Q39Y/R42S/S66N/T106N/T262R/W38E/Y61H)
# Sequence of HLA-DRB1*03:01 (P01903 26-254, other chains not shown): as the sequence (P01903 26-254 limits assumed, other chains not shown) above
# [8] = target: HLA-DRB1*09:01 (Homo sapiens, UniProt P01903+P01911, A100R/A103E/D57H/D86V/F55Y/F60I/F76Y/I96F/K127E/L162R/M171V/P40D/Q125H/Q99R/R33Q/R42F/S133A/S66N/T210M/V115G/W38K/Y107V/Y59G/Y89S)
# [9] = target: HLA-DRB1*11:01 (Homo sapiens, UniProt P01903+P01911, A100R/A169T/A87E/I96F/K41T/L162R/M171V/P40S/Q125H/Q178H/Q39Y/Q99D/R42S/S66Y/T262R/V115G/W38E)
# Sequence of HLA-DRB1*11:01 (P01903 26-254 limits assumed, other chains not shown): as above
# [10] = target: HLA-DRB1*04:05 (Homo sapiens, UniProt P01903+P01911, A100R/A169T/D86S/F76Y/I96L/K127E/L162R/M171V/N62H/P40V/Q125Y/R42H/S133A/S149N/S66Y/V115G/V209L/W38E)
# [11] = target: HLA-DRB1*15:01 (Homo sapiens, UniProt P01903+P01911)
Structure (SMILES),IC50 [1],IC50 [2],IC50 [3],IC50 [4],IC50 [5],IC50 [6],IC50 [7],IC50 [8],IC50 [9],IC50 [10],IC50 [11],"IC50 ([3]; read-out: in vitro binding capacity (IC50), DRB1*01:01)"
CC[C@H](C)[C@H](NC(=O)CN)C(=O)N[C@@H](Cc1ccc(O)cc1)C(=O)N[C@@H](CCC(N)=O)C(=O)N[C@H](C(=O)N[C@@H](CO)C(=O)N[C@@H](CC(N)=O)C(=O)N[C@@H](Cc1ccccc1)C(=O)N[C@@H](CCCNC(=N)N)C(=O)N[C@H](C(=O)N[C@@H](CCC(N)=O)C(=O)N1CCC[C@H]1C(=O)N[C@H](C(=O)N[C@@H](CCC(=O)O)C(=O)N[C@@H](CO)C(=O)O)[C@@H](C)O)C(C)C)[C@@H](C)O [compound 63],> 40000 nM,2070 nM,2390 nM,62 nM,12 nM,10700 nM,> 40000 nM,305 nM,1140 nM,201 nM,21 nM,
CC[C@H](C)[C@H](NC(=O)[C@H](CCCNC(=N)N)NC(=O)[C@H](CCCCN)NC(=O)[C@H](CCCNC(=N)N)NC(=O)[C@H](CC(N)=O)NC(=O)[C@H](Cc1c[nH]c2ccccc12)NC(=O)[C@H](C)NC(=O)[C@H](Cc1ccc(O)cc1)NC(=O)[C@@H](NC(=O)[C@H](CO)NC(=O)[C@H](C)NC(=O)[C@H](Cc1ccccc1)NC(=O)[C@@H](N)CCCNC(=N)N)C(C)C)C(=O)N[C@@H](CO)C(=O)N[C@@H](CC(N)=O)C(=O)O [compound 70],64 nM,31600 nM,5930 nM,7890 nM,540 nM,> 40000 nM,> 40000 nM,1380 nM,3.9 nM,6270 nM,136 nM,
CSCC[C@H](NC(=O)[C@H](CC(C)C)NC(=O)[C@H](Cc1ccccc1)NC(=O)[C@@H]1CCCN1C(=O)[C@H](CCC(N)=O)NC(=O)[C@H](CO)NC(=O)[C@@H](NC(=O)[C@H](Cc1ccc(O)cc1)NC(=O)[C@H](CCC(=O)O)NC(=O)[C@H](Cc1ccccc1)NC(=O)[C@@H](NC(=O)[C@@H](N)CS)[C@@H](C)O)C(C)C)C(=O)N[C@@H](CC(=O)O)C(=O)N[C@@H](CC(C)C)C(=O)N[C@@H](CCC(=O)O)C(=O)O [peptide 34],1470 nM,416 nM,495 nM,1150 nM,,,5860 nM,,3380 nM,16 nM,7240 nM,
CC[C@H](C)[C@H](NC(=O)[C@H](CCCCN)NC(=O)[C@@H](N)Cc1ccccc1)C(=O)N[C@@H](Cc1ccc(O)cc1)C(=O)N[C@@H](CO)C(=O)N[C@@H](CCCCN)C(=O)N[C@@H](Cc1c[nH]cn1)C(=O)N[C@H](C(=O)N1CCC[C@H]1C(=O)N[C@H](C(=O)N[C@@H](CC(N)=O)C(=O)N[C@@H](CC(C)C)C(=O)N[C@H](C(=O)N[C@@H](CCCNC(=N)N)C(=O)N[C@@H](CC(=O)O)C(=O)O)C(C)C)[C@@H](C)CC)[C@@H](C)O [peptide 41],125 nM,7180 nM,64 nM,5250 nM,2.7 nM,9040 nM,> 40000 nM,13 nM,229 nM,16300 nM,611 nM,
CC(C)C[C@H](NC(=O)[C@H](C)NC(=O)[C@H](CC(C)C)NC(=O)[C@H](CC(C)C)NC(=O)[C@@H](NC(=O)[C@H](CCC(N)=O)NC(=O)[C@H](Cc1ccccc1)NC(=O)[C@H](CCCNC(=N)N)NC(=O)[C@@H](N)[C@@H](C)O)[C@@H](C)O)C(=O)N[C@@H](Cc1c[nH]cn1)C(=O)N[C@@H](CCCNC(=N)N)C(=O)N[C@@H](CO)C(=O)N[C@@H](Cc1ccc(O)cc1)C(=O)N[C@@H](CC(C)C)C(=O)N[C@H](C(=O)O)[C@@H](C)O [peptide 48],177 nM,18 nM,38 nM,337 nM,3.9 nM,29900 nM,13800 nM,11 nM,14 nM,794 nM,5 nM,
CC(C)[C@H](N)C(=O)N[C@@H](Cc1ccccc1)C(=O)N[C@@H](CC(N)=O)C(=O)N[C@@H](C)C(=O)N[C@H](C(=O)N[C@@H](CCCNC(=N)N)C(=O)N[C@@H](Cc1ccccc1)C(=O)N[C@@H](C)C(=O)N[C@@H](CO)C(=O)N[C@H](C(=O)N[C@@H](Cc1ccc(O)cc1)C(=O)N[C@@H](C)C(=O)N[C@@H](Cc1c[nH]c2ccccc12)C(=O)N[C@@H](CC(N)=O)C(=O)N[C@@H](CCCNC(=N)N)C(=O)O)C(C)C)[C@@H](C)O [peptide 69],3710 nM,500 nM,,853 nM,2.7 nM,> 40000 nM,> 40000 nM,321 nM,372 nM,976 nM,12 nM,1030 nM
CC(C)[C@H](NC(=O)CNC(=O)[C@H](Cc1ccc(O)cc1)NC(=O)[C@H](CS)NC(=O)[C@H](CCCCN)NC(=O)[C@H](Cc1ccccc1)NC(=O)[C@@H](NC(=O)[C@H](CO)NC(=O)[C@H](Cc1ccccc1)NC(=O)[C@H](CO)NC(=O)[C@H](C)NC(=O)[C@@H](N)CO)[C@@H](C)O)C(=O)N[C@@H](CO)C(=O)N1CCC[C@H]1C(=O)N[C@H](C(=O)O)[C@@H](C)O [peptide 75],4670 nM,11500 nM,5290 nM,3330 nM,519 nM,> 40000 nM,> 40000 nM,117 nM,626 nM,559 nM,711 nM,
CC(C)C[C@H](NC(=O)[C@H](CCCNC(=N)N)NC(=O)[C@H](Cc1ccc(O)cc1)NC(=O)[C@H](CC(C)C)NC(=O)[C@@H](N)Cc1ccc(O)cc1)C(=O)N[C@@H](Cc1ccccc1)C(=O)N[C@@H](CCCNC(=N)N)C(=O)N[C@@H](CCCCN)C(=O)N[C@@H](CO)C(=O)N[C@@H](CC(N)=O)C(=O)N[C@@H](CC(C)C)C(=O)N[C@@H](CCCCN)C(=O)N1CCC[C@H]1C(=O)N[C@@H](Cc1ccccc1)C(=O)N[C@@H](CCC(=O)O)C(=O)O [peptide 91],23 nM,323 nM,7360 nM,590 nM,575 nM,8570 nM,> 40000 nM,13 nM,4.2 nM,543 nM,1.7 nM,
CC[C@H](C)[C@H](NC(=O)[C@H](Cc1ccccc1)NC(=O)[C@H](CO)NC(=O)[C@H](CCCNC(=N)N)NC(=O)[C@H](CCCCN)NC(=O)[C@H](CO)NC(=O)[C@@H]1CCCN1C(=O)[C@@H](N)CCCCN)C(=O)N[C@@H](CCC(=O)O)C(=O)N[C@@H](CC(=O)O)C(=O)N[C@@H](CC(C)C)C(=O)N[C@@H](CC(C)C)C(=O)N[C@@H](Cc1ccccc1)C(=O)N[C@@H](CC(N)=O)C(=O)N[C@@H](CCCCN)C(=O)O [peptide 163],3410 nM,3980 nM,> 40000 nM,451 nM,1930 nM,> 40000 nM,1500 nM,519 nM,301 nM,3440 nM,6810 nM,
CC[C@H](C)[C@H](NC(=O)[C@H](CC(=O)O)NC(=O)CNC(=O)[C@H](CC(C)C)NC(=O)[C@H](CS)NC(=O)[C@H](CC(=O)O)NC(=O)CNC(=O)[C@H](Cc1ccc(O)cc1)NC(=O)[C@H](CCC(N)=O)NC(=O)[C@H](CCCCN)NC(=O)[C@@H](NC(=O)[C@H](Cc1ccccc1)NC(=O)CNC(=O)[C@H](C)N)[C@@H](C)CC)C(=O)N[C@@H](C)C(=O)O [peptide 167],22300 nM,17000 nM,1100 nM,836 nM,740 nM,,,1560 nM,3750 nM,950 nM,716 nM,
